Source: patent publication US9113629B2, “4-amino-6-(4-substituted-phenyl)-picolinates and 6-amino-2-(4-substituted-phenyl)-pyrimidine-4-carboxylates and their use as herbicides” (DOW AGROSCIENCES LLC, priority 2013, dated 2015)

How the values were obtained:
Assay in all cases: Post-emergent Test III, herbicidal activity in wheat and barley
Type in all cases: in vivo
[1] = system: PAPRH: common poppy (Papaver rhoeas); details: for pest or weed control at 35 g/ha / pest or weed control at 70 g/ha / pest or weed control at 140 g/ha: Papaver rhoeas, post-emergence, 504 h, read-out: Visual Growth Reduction (%) 21 Days After Application PAPRH; for pest or weed control at 35 g/ha: 35 g ai/ha; for pest or weed control at 70 g/ha: 70 g ai/ha; for pest or weed control at 140 g/ha: 140 g ai/ha; for GR50 PAPRH / GR80 PAPRH: probit analysis, 21 days after application; for GR50 PAPRH: dose for growth reduction of 50 percent; for GR80 PAPRH: dose for growth reduction of 80 percent
Procedure, shortened: (§1)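 GR20, GR50, GR80 and GR90 come from probit analysis of visual injury scores (0 = none, 100 = complete kill) taken 21 d after treatment. Foliar application was by track sprayer delivering 187 L/ha at five rates, from high down to 1/16×, onto greenhouse plants at the 2–3 leaf stage, with solvent-blank controls.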

[2] = system: VERPE: bird's-eye speedwell (veronica persica); details: for pest or weed control at 35 g/ha / pest or weed control at 70 g/ha / pest or weed control at 140 g/ha: Veronica persica, post-emergence, 504 h, read-out: Visual Growth Reduction (%) 21 Days After Application VERPE; for pest or weed control at 35 g/ha: 35 g ai/ha; for pest or weed control at 70 g/ha: 70 g ai/ha; for pest or weed control at 140 g/ha: 140 g ai/ha; for GR50 VERPE / GR80 VERPE: probit analysis, 21 days after application; for GR50 VERPE: dose for growth reduction of 50 percent; for GR80 VERPE: dose for growth reduction of 80 percent
Procedure, shortened: as §1

[3] = system: ALOMY: black-grass (Alopecurus myosuroides); details: for pest or weed control at 35 g/ha / pest or weed control at 70 g/ha / pest or weed control at 140 g/ha: Alopecurus myosuroides, post-emergence, 504 h, read-out: Visual Growth Reduction (%) 21 Days After Application ALOMY; for pest or weed control at 35 g/ha: 35 g ai/ha; for pest or weed control at 70 g/ha: 70 g ai/ha; for pest or weed control at 140 g/ha: 140 g ai/ha; for GR50 ALOMY / GR80 ALOMY: probit analysis, 21 days after application; for GR50 ALOMY: dose for growth reduction of 50 percent; for GR80 ALOMY: dose for growth reduction of 80 percent
Procedure, shortened: as §1

[4] = system: LAMSS; details: for pest or weed control at 35 g/ha / pest or weed control at 70 g/ha / pest or weed control at 140 g/ha: post-emergence, 504 h, read-out: Visual Growth Reduction (%) 21 Days After Application LAMSS; for pest or weed control at 35 g/ha: 35 g ai/ha; for pest or weed control at 70 g/ha: 70 g ai/ha; for pest or weed control at 140 g/ha: 140 g ai/ha; for GR50 LAMSS / GR80 LAMSS: probit analysis, 21 days after application; for GR50 LAMSS: dose for growth reduction of 50 percent; for GR80 LAMSS: dose for growth reduction of 80 percent
Procedure, shortened: as §1

[5] = system: BROTE: downy brome (Bromus tectorum); details: for pest or weed control at 35 g/ha / pest or weed control at 70 g/ha / pest or weed control at 140 g/ha: Bromus tectorum, post-emergence, 504 h, read-out: Visual Growth Reduction (%) 21 Days After Application BROTE; for pest or weed control at 35 g/ha: 35 g ai/ha; for pest or weed control at 70 g/ha: 70 g ai/ha; for pest or weed control at 140 g/ha: 140 g ai/ha; for GR50 BROTE / GR80 BROTE: probit analysis, 21 days after application; for GR50 BROTE: dose for growth reduction of 50 percent; for GR80 BROTE: dose for growth reduction of 80 percent
Procedure, shortened: as §1

Row | SMILES | pest or weed control at 35 g/ha [1] [%] | pest or weed control at 70 g/ha [1] [%] | pest or weed control at 140 g/ha [1] [%] | GR50 PAPRH [1] [g ai/ha] | GR80 PAPRH [1] [g ai/ha] | pest or weed control at 35 g/ha [2] [%] | pest or weed control at 70 g/ha [2] [%] | pest or weed control at 140 g/ha [2] [%] | pest or weed control at 35 g/ha [3] [%] | pest or weed control at 70 g/ha [3] [%] | GR50 ALOMY [3] [g ai/ha] | GR80 ALOMY [3] [g ai/ha] | pest or weed control at 35 g/ha [4] [%] | pest or weed control at 70 g/ha [4] [%] | GR50 LAMSS [4] [g ai/ha] | GR80 LAMSS [4] [g ai/ha] | pest or weed control at 35 g/ha [5] [%] | pest or weed control at 70 g/ha [5] [%] | GR50 BROTE [5] [g ai/ha] | GR80 BROTE [5] [g ai/ha] | other results
1 | Nc1c(F)c(-c2ccc(OC(F)F)cc2)nc(C(=O)O)c1Cl [Compound 143] | 85 to 94 | 85 to 94 | 85 to 94 | 1 | 8 | 30 to 44 | 45 to 59 | 45 to 59 | 0 to 29 | 60 to 74 | 71 | >140 | 85 to 94 | 85 to 94 | 1 | 1 | 0 to 29 | 45 to 59 | 95 | >140 | GR50 VERPE [2]: 97 g ai/ha; GR80 VERPE [2]: >140 g ai/ha; pest or weed control at 140 g/ha [3]: 60 to 74%; pest or weed control at 140 g/ha [4]: 85 to 94%; pest or weed control at 140 g/ha [5]: 45 to 59%
2 | COC(=O)c1nc(-c2ccc(Br)c(F)c2F)c(F)c(N)c1Cl [Compound 109, methyl 4-amino-6-(4-bromo-2,3-difluorophenyl)-3-chloro-5-fluoropicolinate] |  |  |  |  |  |  |  |  | 60 to 74 | 75 to 84 | 22 | 88 | 95 to 100 | 95 to 100 | 1 | 1 | 75 to 84 | 85 to 94 | 14 | 41 | 
3 | Nc1c(F)c(-c2ccc(Br)cc2)nc(C(=O)O)c1Cl [Compound 20] | 95 to 100 | 95 to 100 | 95 to 100 | 1 | 1 | 60 to 74 | 60 to 74 | 75 to 84 | 75 to 84 | 75 to 84 | 21 | 72 | 95 to 100 | 95 to 100 | 1 | 1 | 75 to 84 | 85 to 94 | 3 | 87 | GR50 VERPE [2]: 33 g ai/ha; GR80 VERPE [2]: >140 g ai/ha; pest or weed control at 140 g/ha [3]: 75 to 84%; pest or weed control at 140 g/ha [4]: 95 to 100%; pest or weed control at 140 g/ha [5]: 85 to 94%
4 | COC(=O)c1nc(-c2ccc(C#N)cc2)c(F)c(N)c1Cl [Compound 142] | 85 to 94 | 95 to 100 | 95 to 100 | 1 | 4 | 75 to 84 | 85 to 94 | 85 to 94 | 0 to 29 | 0 to 29 | >140 | >140 | 85 to 94 | 85 to 94 | 0 | 5 | 0 to 29 | 0 to 29 | >140 | >140 | GR50 VERPE [2]: 5 g ai/ha; GR80 VERPE [2]: 40 g ai/ha; pest or weed control at 140 g/ha [3]: 0 to 29%; pest or weed control at 140 g/ha [4]: 85 to 94%; pest or weed control at 140 g/ha [5]: 0 to 29%
5 | COC(=O)c1nc(-c2ccc(C(F)F)cc2)c(F)c(N)c1Cl [Compound 209] |  |  |  |  |  |  |  |  | 0 to 29 | 0 to 29 | >140 | >140 | 85 to 94 | 85 to 94 | 7 | 29 | 0 to 29 | 30 to 44 | 88 | >140 | 
